The target of data set [1] is Mitogen-activated protein kinase kinase kinase 7 (Homo sapiens) (UniProt O43318). Description: Inhibition of human TAK1 at 10 uM after 60 mins by TR-FRET assay; values are per cent of control.
Data set [2] addresses Ephrin type-B receptor 3 (Homo sapiens) (UniProt P54753). Description: Inhibition of human EphB3 at 10 uM after 60 mins by TR-FRET assay; values are per cent of control. A general note: TR-FRET usually uses a lanthanide donor and a delayed reading to cut background.
Data set [3] concerns the target Tyrosine-protein kinase Lck (Homo sapiens) (UniProt P06239). Description: Inhibition of LCK at 10 uM after 60 mins by TR-FRET assay.
Data set [4] deals with Cyclin-dependent kinase 1/cyclin B (Homo sapiens) (UniProt P06493+P14635+Q8WWL7+O95067). Put plainly: Inhibition of CDK1/cyclin B at 10 uM after 60 mins by TR-FRET assay. The class given is protein-complex assay.
In data set [5] the target is Serine/threonine-protein kinase MARK2 (Homo sapiens) (UniProt Q7KZI7). Description: Inhibition of MARK2 at 10 uM after 60 mins by TR-FRET assay.
For data set [6], the target named is Dual specificity tyrosine-phosphorylation-regulated kinase 1B (Homo sapiens) (UniProt Q9Y463). Description: Inhibition of DYRK1B at 10 uM after 60 mins by TR-FRET assay.
The target of data set [7] is T1, Serine/threonine-protein kinase Chk1 (Homo sapiens) (UniProt O14757).
T1 sequence (whole entry): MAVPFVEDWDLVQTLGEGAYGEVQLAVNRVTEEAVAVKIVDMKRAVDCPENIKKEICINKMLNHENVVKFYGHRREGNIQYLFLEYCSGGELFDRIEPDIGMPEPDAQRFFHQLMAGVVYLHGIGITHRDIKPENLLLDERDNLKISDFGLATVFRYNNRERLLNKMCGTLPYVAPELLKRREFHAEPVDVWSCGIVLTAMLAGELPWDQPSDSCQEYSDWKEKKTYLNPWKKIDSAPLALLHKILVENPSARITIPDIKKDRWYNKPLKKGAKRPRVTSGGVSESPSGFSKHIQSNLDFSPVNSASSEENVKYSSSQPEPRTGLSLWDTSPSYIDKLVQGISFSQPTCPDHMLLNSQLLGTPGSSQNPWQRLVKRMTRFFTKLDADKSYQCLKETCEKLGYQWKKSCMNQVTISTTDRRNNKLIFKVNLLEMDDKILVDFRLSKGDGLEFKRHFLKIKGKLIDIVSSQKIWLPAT
Put plainly: Inhibition of CHEK1 at 10 uM after 60 mins by TR-FRET assay.

For data set [8], the target named is T2, Dual specificity protein kinase TTK (Homo sapiens) (UniProt P33981).
T2 sequence (whole entry): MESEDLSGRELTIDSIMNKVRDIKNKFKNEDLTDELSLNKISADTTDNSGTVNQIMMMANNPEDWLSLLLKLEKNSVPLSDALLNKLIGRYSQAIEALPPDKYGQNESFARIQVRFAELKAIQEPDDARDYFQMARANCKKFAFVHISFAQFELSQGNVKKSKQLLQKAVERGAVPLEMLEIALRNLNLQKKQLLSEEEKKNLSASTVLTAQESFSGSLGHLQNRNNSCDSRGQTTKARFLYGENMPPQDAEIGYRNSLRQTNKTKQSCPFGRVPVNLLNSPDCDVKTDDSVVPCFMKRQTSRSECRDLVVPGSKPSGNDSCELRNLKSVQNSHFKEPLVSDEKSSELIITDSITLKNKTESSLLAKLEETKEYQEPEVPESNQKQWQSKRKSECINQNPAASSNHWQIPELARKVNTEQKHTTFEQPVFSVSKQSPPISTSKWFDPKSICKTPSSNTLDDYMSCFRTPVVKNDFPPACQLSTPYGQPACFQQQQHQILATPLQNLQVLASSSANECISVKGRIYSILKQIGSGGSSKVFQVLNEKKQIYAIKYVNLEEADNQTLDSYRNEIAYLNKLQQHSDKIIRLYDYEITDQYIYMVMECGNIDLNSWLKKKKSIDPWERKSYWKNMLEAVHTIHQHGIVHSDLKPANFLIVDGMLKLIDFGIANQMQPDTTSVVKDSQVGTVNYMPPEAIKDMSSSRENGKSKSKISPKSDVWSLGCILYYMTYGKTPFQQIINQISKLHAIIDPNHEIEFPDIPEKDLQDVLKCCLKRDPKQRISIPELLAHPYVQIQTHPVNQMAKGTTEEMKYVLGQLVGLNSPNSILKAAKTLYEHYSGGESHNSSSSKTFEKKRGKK
Description: Inhibition of TTK at 10 uM after 60 mins by TR-FRET assay.

Data set [9] addresses Serine/threonine-protein kinase PLK2 (Homo sapiens) (UniProt Q9NYY3). Put plainly: Inhibition of PLK2 at 10 uM after 60 mins by TR-FRET assay.
The target in data set [10] is Tyrosine-protein kinase JAK1 (Homo sapiens) (UniProt P23458). Description: Inhibition of JAK1 at 10 uM after 60 mins by TR-FRET assay.
Data set [11] concerns the target Protein-tyrosine kinase 2-beta (Homo sapiens) (UniProt Q14289). Description: Inhibition of PTK2B at 10 uM after 60 mins by TR-FRET assay.
For data set [12], the target named is Receptor-interacting serine/threonine-protein kinase 2 (Homo sapiens) (UniProt O43353). Description: Inhibition of RIPK2 at 10 uM after 60 mins by TR-FRET assay.
The target of data set [13] is Serine/threonine-protein kinase PAK 4 (Homo sapiens) (UniProt O96013). Put plainly: Inhibition of PAK4 at 10 uM after 60 mins by TR-FRET assay.
Data set [14] addresses Cyclin-dependent kinase 2/cyclin A (Homo sapiens) (UniProt P24941+P20248+P78396). Description: Inhibition of CDK2/cyclin A at 10 uM after 60 mins by TR-FRET assay. It is filed as protein-complex assay.
Data set [15] concerns the target PI3-kinase p110-alpha/p85-alpha (Homo sapiens) (UniProt P27986+P42336). Description: Inhibition of p110alpha/p85alpha at 10 uM after 60 mins by TR-FRET assay. The class given is protein-complex assay.
In data set [16] the target is Mitogen-activated protein kinase 10 (Homo sapiens, UniProt P53779). Description: Inhibition of recombinant JNK3 after 60 mins by TR-FRET assay.
A short description of data set [17]: Efflux ratio, ratio of permeability from apical to basolateral in MDCK2 cells over expressing MDR1 in presence of P-gp inhibitor to permeability from apical to basolateral in MDCK2 cells over expressing MDR1 in absence of P-gp inhibitor at 5 uM after 120 mins. It is filed as ADME, cell-based, Canis lupus familiaris. As to conditions: dog, mdck-ii, 2 h.
Data set [18] is described as follows: Apparent permeability of the compound from apical to basolateral direction in MDCK2 cells at 5 uM after 120 mins. The class given is ADME, cell-based, Canis lupus familiaris, MDCK-II. Conditions: dog, MDCK.
Data set [19] is described as follows: Oxidative metabolic stability in mouse liver microsomes assessed as compound remaining at 2 uM after 30 mins. The class given is ADME, Microsome. As to conditions: read-out: Stability.
Data set [20] in a line: Oxidative metabolic stability in human liver microsomes assessed as compound remaining at 2 uM after 30 mins. It is filed as ADME, Microsome. As to conditions: read-out: Stability.
The target in data set [21] is Serine/threonine-protein kinase 16 (Homo sapiens) (UniProt O75716). Put plainly: Inhibition of STK16 at 10 uM after 60 mins by TR-FRET assay.
A short description of data set [22]: Neuroprotective activity in human cortical neurons assessed as inhibition of amyloid-beta-induced toxicity after 2 to 3 days. It is filed as functional. Conditions: cortical neurone.

A value given as a limit tells only on which side of the number the result lay.

Sequence of Protein-tyrosine kinase 2-beta (Homo sapiens) (Q14289 whole entry, looked up): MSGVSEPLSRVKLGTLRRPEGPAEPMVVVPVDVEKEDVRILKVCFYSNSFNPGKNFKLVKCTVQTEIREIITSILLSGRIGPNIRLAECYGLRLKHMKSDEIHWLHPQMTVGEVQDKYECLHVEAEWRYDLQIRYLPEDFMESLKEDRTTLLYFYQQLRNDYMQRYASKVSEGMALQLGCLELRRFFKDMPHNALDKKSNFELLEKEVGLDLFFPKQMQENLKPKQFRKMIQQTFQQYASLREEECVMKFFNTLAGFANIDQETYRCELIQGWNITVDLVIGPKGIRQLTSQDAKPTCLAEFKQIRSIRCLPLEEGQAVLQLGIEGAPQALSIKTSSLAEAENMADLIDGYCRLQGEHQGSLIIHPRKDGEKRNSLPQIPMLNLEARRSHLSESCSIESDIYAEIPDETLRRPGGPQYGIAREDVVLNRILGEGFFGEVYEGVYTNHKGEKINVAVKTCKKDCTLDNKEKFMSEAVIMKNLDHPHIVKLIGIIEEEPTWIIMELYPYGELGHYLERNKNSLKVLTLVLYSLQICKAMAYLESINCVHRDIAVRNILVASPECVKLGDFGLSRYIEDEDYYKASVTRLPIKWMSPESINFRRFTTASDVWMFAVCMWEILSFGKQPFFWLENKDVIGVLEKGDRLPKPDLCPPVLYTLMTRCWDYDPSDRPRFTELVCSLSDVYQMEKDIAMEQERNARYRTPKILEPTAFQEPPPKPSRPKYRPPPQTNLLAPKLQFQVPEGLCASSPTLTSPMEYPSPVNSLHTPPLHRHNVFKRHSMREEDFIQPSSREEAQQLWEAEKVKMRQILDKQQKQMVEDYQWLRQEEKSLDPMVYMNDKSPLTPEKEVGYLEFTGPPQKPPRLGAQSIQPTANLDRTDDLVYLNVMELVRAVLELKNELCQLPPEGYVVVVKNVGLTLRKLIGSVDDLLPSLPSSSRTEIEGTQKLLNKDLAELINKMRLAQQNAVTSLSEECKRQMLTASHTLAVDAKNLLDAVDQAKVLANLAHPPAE
Sequence of Serine/threonine-protein kinase 16 (Homo sapiens) (O75716 whole entry): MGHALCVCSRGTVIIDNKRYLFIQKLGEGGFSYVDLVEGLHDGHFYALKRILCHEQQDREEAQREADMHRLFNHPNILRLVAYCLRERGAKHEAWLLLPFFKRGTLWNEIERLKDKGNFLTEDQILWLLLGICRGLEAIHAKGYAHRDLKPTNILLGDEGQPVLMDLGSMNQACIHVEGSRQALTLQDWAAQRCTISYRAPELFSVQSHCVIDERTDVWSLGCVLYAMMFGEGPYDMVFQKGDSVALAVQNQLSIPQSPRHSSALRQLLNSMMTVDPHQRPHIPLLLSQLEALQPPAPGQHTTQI
Sequence of Serine/threonine-protein kinase PLK2 (Homo sapiens) (Q9NYY3 whole entry, looked up): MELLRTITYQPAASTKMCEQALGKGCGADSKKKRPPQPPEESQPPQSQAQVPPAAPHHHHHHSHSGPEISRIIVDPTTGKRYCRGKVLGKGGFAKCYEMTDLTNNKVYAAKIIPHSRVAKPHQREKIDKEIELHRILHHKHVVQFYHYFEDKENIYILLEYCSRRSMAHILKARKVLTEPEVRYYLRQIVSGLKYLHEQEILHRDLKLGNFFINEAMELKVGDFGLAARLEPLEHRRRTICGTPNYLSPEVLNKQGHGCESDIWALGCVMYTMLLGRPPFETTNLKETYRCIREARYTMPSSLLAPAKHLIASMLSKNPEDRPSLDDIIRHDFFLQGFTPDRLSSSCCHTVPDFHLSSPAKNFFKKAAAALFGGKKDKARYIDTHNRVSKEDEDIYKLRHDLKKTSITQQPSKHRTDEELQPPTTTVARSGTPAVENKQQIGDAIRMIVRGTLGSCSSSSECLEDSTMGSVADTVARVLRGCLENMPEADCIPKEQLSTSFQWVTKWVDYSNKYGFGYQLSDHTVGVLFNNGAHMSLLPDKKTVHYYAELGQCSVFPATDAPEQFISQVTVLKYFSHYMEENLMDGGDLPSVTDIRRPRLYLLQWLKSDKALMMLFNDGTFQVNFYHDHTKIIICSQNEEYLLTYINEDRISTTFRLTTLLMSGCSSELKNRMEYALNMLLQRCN
Sequence of Tyrosine-protein kinase Lck (Homo sapiens) (P06239 2-509 limits assumed): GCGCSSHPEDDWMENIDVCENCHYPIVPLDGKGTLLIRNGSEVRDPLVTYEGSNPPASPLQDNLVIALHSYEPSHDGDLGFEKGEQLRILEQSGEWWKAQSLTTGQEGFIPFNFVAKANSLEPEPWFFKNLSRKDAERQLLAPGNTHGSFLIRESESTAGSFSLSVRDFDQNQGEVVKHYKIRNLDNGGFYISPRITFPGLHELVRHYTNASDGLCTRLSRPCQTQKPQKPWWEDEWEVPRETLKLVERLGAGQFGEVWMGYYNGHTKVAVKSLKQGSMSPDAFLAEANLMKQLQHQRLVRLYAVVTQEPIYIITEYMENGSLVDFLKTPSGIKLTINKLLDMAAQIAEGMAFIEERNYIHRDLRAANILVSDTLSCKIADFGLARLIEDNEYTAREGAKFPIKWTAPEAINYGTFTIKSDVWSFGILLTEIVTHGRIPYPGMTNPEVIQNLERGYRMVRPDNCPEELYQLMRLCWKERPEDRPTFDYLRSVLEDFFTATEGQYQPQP
Sequence of Serine/threonine-protein kinase PAK 4 (Homo sapiens) (O96013 whole entry, looked up): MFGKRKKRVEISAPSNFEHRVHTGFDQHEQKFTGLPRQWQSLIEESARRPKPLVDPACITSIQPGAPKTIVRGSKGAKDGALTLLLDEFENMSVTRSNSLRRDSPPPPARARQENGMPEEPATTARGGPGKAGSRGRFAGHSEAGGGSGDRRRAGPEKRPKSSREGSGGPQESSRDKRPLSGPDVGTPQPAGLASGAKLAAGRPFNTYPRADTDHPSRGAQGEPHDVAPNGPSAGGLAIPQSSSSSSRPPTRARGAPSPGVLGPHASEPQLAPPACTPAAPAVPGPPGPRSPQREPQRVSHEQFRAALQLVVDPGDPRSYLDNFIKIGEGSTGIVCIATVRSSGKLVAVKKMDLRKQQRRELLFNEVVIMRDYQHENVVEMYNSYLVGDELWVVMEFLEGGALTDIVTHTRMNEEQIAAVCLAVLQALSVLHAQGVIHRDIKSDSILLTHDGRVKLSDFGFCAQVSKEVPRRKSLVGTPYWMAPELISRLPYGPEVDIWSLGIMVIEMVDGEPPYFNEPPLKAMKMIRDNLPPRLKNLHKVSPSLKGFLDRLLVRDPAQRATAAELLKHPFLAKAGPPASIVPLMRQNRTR
Sequence of Serine/threonine-protein kinase MARK2 (Homo sapiens) (Q7KZI7 whole entry): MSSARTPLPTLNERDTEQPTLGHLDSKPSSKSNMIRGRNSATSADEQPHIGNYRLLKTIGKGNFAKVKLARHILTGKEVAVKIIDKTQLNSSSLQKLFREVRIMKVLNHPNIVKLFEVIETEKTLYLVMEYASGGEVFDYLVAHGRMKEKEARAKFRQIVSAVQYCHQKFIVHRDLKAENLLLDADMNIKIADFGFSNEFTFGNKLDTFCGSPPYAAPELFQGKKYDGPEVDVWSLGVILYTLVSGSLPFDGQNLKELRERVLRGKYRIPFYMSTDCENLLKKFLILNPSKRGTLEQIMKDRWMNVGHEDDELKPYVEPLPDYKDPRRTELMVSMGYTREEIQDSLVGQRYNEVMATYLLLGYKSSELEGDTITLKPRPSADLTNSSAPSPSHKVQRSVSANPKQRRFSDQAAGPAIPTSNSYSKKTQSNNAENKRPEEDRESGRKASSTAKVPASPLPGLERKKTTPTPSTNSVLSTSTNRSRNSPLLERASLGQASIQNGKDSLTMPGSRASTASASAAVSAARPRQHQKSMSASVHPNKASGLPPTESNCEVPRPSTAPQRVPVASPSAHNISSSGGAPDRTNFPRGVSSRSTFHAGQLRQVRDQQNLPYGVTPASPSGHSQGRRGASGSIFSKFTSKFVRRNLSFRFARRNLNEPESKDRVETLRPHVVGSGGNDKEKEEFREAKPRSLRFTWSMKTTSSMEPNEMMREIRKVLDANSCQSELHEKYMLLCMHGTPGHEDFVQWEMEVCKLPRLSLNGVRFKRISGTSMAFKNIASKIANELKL
Sequence of Mitogen-activated protein kinase 10 (P53779 whole entry): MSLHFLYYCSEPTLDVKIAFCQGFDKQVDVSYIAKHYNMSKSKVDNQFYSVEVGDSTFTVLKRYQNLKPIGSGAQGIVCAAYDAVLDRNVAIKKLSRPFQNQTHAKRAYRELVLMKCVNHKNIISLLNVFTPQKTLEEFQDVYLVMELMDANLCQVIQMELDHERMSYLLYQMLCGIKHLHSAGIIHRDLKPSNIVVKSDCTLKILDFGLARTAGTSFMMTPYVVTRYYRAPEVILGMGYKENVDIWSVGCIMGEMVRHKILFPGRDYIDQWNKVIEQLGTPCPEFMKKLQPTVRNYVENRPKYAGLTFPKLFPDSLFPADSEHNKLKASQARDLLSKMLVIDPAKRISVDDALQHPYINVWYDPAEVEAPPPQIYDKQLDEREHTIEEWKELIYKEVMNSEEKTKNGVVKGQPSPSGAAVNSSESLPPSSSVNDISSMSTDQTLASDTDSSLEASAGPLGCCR
Sequence of Dual specificity tyrosine-phosphorylation-regulated kinase 1B (Homo sapiens) (Q9Y463 whole entry, looked up): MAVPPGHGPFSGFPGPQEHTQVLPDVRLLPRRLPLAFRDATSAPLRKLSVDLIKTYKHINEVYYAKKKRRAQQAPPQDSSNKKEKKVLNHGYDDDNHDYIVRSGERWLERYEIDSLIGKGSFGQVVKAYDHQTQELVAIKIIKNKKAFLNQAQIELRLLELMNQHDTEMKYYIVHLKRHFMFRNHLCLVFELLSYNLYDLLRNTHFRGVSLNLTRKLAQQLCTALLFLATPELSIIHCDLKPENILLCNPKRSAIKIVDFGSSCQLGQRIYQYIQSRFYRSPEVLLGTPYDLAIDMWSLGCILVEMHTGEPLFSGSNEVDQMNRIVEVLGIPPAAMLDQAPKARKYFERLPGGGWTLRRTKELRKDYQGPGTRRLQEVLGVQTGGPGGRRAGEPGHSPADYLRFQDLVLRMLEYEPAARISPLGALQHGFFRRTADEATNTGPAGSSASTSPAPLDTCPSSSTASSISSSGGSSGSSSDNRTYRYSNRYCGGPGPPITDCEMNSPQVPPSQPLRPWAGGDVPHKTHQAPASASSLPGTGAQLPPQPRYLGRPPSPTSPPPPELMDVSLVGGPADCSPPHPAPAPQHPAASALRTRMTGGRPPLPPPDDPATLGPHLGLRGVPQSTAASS

On to `S=c1[nH]nc(-c2ccncc2)n1-c1ccc2ccccc2c1`, for which the figures for the residual activity in [1] and in data set [2] were 89% and 102%, respectively.

Consider `O=c1n(C2CCOCC2)nc(-c2ccnc(NC3CCCCC3)c2)n1-c1ccc2ccccc2c1`, for which the inhibition (in general, the relative decrease from the control value, in per cent) in data set [3] was -6%; in data set [4], 4%; in data set [5], 0%; in [6] it was 39%; in data set [7] it was -4%; in data set [8], 3%. Moreover, the inhibition in data set [9] was 26%; in data set [10], 1%; in data set [11] it was -2%; in data set [12], 13%; in data set [13], 27%; in data set [14] it was 0%. In addition, the inhibition in data set [15] was found to be 0%.

Take `O=c1n(Cc2ccccn2)nc(-c2ccnc(NC3CCOCC3)c2)n1-c1ccc2ccccc2c1`: the inhibition in data set [3] is -2%; in data set [4] it was 2%; in data set [5] it was -2%; in [6], 1%; in data set [7], -9%; in data set [8], 0%. Further, the inhibition in [9] is 5%; in data set [11], -7%; in [12], 1%; in [14], -6%; in data set [15], -5%; in [21], -9%. Also, in data set [16], the half-maximal inhibitory concentration (IC50) (commonly the midpoint of a concentration-inhibition curve) amounted to 54 nM. The Ratio in data set [17] is 1.4. Also, in [18], the apical-to-basolateral permeability (Papp A→B) (commonly the apparent permeability from the apical to the basolateral side of a cell layer) at 2 h, 5 µM stood at 18.5 ×10⁻⁶ cm/s. Further, the remaining at 0.5 h, 2 µM in data set [19] is 1.4%; in data set [20], 40%.

On to `O=c1n(Cc2ccncc2)nc(-c2ccnc(NC3CCCCC3)c2)n1-c1ccc2ccccc2c1`, for which the inhibition in data set [3] is 9%; in data set [4], 8%; in data set [5], 0%; in data set [6], 18%; in data set [7], -9%; in data set [9], 0%. The inhibition in data set [10] was -4%; in data set [11] it was 6%; in data set [12] it was 8%; in [13] it was -1%; in data set [14] it was 3%; in data set [15], 6%. In [16], the 50% inhibitory concentration (IC50) was 29 nM. In addition, the Papp A→B at 2 h, 5 µM in data set [18] turned out to be 8.1 ×10⁻⁶ cm/s. For the same compound, the remaining at 0.5 h, 2 µM in data set [19] amounted to 48%; in data set [20], 2%. For the same compound, in [22], the EC50 (commonly the midpoint of the concentration-response curve) was determined as 12000 nM.

Turning to `O=c1[nH]nc(-c2ccnc(NC3CCOCC3)c2)n1-c1ccc2ccccc2c1`, the inhibition was -3% in data set [3]; 10% in data set [4]; 4% in data set [5]; 22% in data set [6]; 44% in [8]; 33% in data set [9]. For the same compound, the inhibition was -3% in data set [10]; 2% in data set [11]; 6% in data set [12]; 35% in data set [14]; 49% in [15]; 38% in data set [21]. Besides, the half-maximal inhibitory concentration (IC50) in data set [16] was found to be 85 nM. In [17], the Ratio was 12. Besides, the Papp A→B at 2 h, 5 µM in [18] worked out at 15.7 ×10⁻⁶ cm/s. For the same compound, the remaining at 0.5 h, 2 µM in data set [19] worked out at 12%; in [20], 73%.

`O=c1[nH]nc(-c2ccnc(NC3CCCOC3)c2)n1-c1ccc2ccccc2c1` (stereo unspecified): the inhibition in [3] was 4%; in data set [4], 4%; in data set [5] it was 1%; in [6], 76%; in [7], -9%; in [8] it was 30%. The inhibition worked out at 62% in [9]; 1% in [10]; 11% in data set [11]; 1% in [12]; 69% in [13]; 3% in [14]. The inhibition in data set [15] is 34%; in [21], 21%. Further, the IC50 in [16] came to 32 nM.

On to `O=c1[nH]nc(-c2ccnc(NC3CCCCC3)c2)n1-c1ccc2ccccc2c1`, for which the inhibition is -10% in data set [3]; 5% in data set [4]; 1% in data set [5]; 20% in data set [6]; -5% in data set [7]; 10% in [8]. The inhibition in [9] is 15%; in data set [10] it was 1%; in data set [11], -3%; in [12], 6%; in [13], -2%; in data set [14], 2%. For the same compound, the inhibition was 29% in data set [15] and -1% in [21]. Further, in data set [16], the IC50 amounted to 24 nM. Further, the Ratio in data set [17] worked out at 2.6. Moreover, the Papp A→B at 2 h, 5 µM in data set [18] was 0.9 ×10⁻⁶ cm/s. The remaining at 0.5 h, 2 µM in data set [19] worked out at 2.6%; in [20], 57%. Besides, the concentration for a half-maximal effect (EC50) in [22] was greater than 50000 nM.

The values above are taken from ChEMBL document CHEMBL1641539 (Bioorg Med Chem Lett, 2011).
